Results from the supplement of paper PMC4862054.

Tested on: HCC1599
Test: drug sensitivity score (DSS), CellTiter-Glo (DSS (AUC-based score)); higher = stronger drug effect (viability inhibition or cytotoxicity); extreme values may be limits of the assay
Conditions: incubation time: 72 h
Procedure, shortened: (§1)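 A drug sensitivity score was derived from the area under each fitted dose-response curve. Breast cancer cells (20 µl suspension) were seeded onto compound in 384-well plates, using 5 concentrations 10-fold apart over a compound-specific 10,000-fold range, and incubated 72 h. Readouts were CellTox Green fluorescence and then CellTiter-Glo luminescence, with every plate normalised to 0.1 % DMSO and a positive kill control.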

Compound	drug sensitivity score
COc1cc([C@@H]2c3cc4c(cc3[C@@H](O[C@@H]3O[C@@H]5CO[C@@H](C)O[C@H]5[C@H](O)[C@H]3O)[C@H]3COC(=O)[C@H]23)OCO4)cc(OC)c1O [Etoposide]	9.75
CN(N=O)C(=O)N[C@@H](C=O)[C@@H](O)[C@H](O)[C@H](O)CO [Streptozocin]	0
Cc1ccc(C(=O)N(CCCN)[C@@H](c2oc3cc(Cl)ccc3c(=O)c2Cc2ccccc2)C(C)C)cc1	0

Tested on: HCC1937
Test: as above
Conditions: incubation time: 72 h
Procedure, shortened: as §1

Compound	drug sensitivity score
CNCc1ccc(-c2[nH]c3cc(F)cc4c3c2CCNC4=O)cc1 [Rucaparib]	0
C[C@]12CC[C@@H]3c4ccc(O)cc4C[C@@H](CCCCCCCCC[S+]([O-])CCCC(F)(F)C(F)(F)F)[C@H]3[C@@H]1CC[C@@H]2O (some centres not stated) [Fulvestrant]	0
CN(C)/N=N/c1[nH]cnc1C(N)=O [Dacarbazine]	0
CC(C)Cn1cnc2c(N)nc3ccccc3c21 [Imiquimod]	0
C#Cc1cccc(Nc2ncnc3cc(OCCOC)c(OCCOC)cc23)c1 [Erlotinib]	0
N[C@@H](CSC(c1ccccc1)(c1ccccc1)c1ccccc1)C(=O)O [S-trityl-L-cysteine]	0
O=P1(NCCCl)OCCCN1CCCl (configuration not stated) [Ifosfamide]	0
Cc1ccc(-n2nc(C(C)(C)C)cc2NC(=O)Nc2ccc(OCCN3CCOCC3)c3ccccc23)cc1 [Doramapimod]	0
Cn1c(Nc2ccc(C(F)(F)F)cc2)nc2cc(Oc3ccnc(-c4ncc(C(F)(F)F)[nH]4)c3)ccc21 [RAF265]	1.88
COc1cc([C@@H]2c3cc4c(cc3[C@@H](O[C@@H]3O[C@@H]5CO[C@@H](C)O[C@H]5[C@H](O)[C@H]3O)[C@H]3COC(=O)[C@H]23)OCO4)cc(OC)c1O [Etoposide]	0
CN(N=O)C(=O)N[C@@H](C=O)[C@@H](O)[C@H](O)[C@H](O)CO [Streptozocin]	0
Cc1ccc(C(=O)N(CCCN)[C@@H](c2oc3cc(Cl)ccc3c(=O)c2Cc2ccccc2)C(C)C)cc1	0

Tested on: HDQ-P1
Test: as above
Conditions: incubation time: 72 h
Procedure, shortened: as §1

Compound	drug sensitivity score
CNCc1ccc(-c2[nH]c3cc(F)cc4c3c2CCNC4=O)cc1 [Rucaparib]	0
C[C@]12CC[C@@H]3c4ccc(O)cc4C[C@@H](CCCCCCCCC[S+]([O-])CCCC(F)(F)C(F)(F)F)[C@H]3[C@@H]1CC[C@@H]2O (some centres not stated) [Fulvestrant]	0
CN(C)/N=N/c1[nH]cnc1C(N)=O [Dacarbazine]	0
CC(C)Cn1cnc2c(N)nc3ccccc3c21 [Imiquimod]	0
C#Cc1cccc(Nc2ncnc3cc(OCCOC)c(OCCOC)cc23)c1 [Erlotinib]	9.11
N[C@@H](CSC(c1ccccc1)(c1ccccc1)c1ccccc1)C(=O)O [S-trityl-L-cysteine]	0
O=P1(NCCCl)OCCCN1CCCl (configuration not stated) [Ifosfamide]	0
Cc1ccc(-n2nc(C(C)(C)C)cc2NC(=O)Nc2ccc(OCCN3CCOCC3)c3ccccc23)cc1 [Doramapimod]	1.32
Cn1c(Nc2ccc(C(F)(F)F)cc2)nc2cc(Oc3ccnc(-c4ncc(C(F)(F)F)[nH]4)c3)ccc21 [RAF265]	5.82
COc1cc([C@@H]2c3cc4c(cc3[C@@H](O[C@@H]3O[C@@H]5CO[C@@H](C)O[C@H]5[C@H](O)[C@H]3O)[C@H]3COC(=O)[C@H]23)OCO4)cc(OC)c1O [Etoposide]	0.733
CN(N=O)C(=O)N[C@@H](C=O)[C@@H](O)[C@H](O)[C@H](O)CO [Streptozocin]	0
Cc1ccc(C(=O)N(CCCN)[C@@H](c2oc3cc(Cl)ccc3c(=O)c2Cc2ccccc2)C(C)C)cc1	0

Tested on: Hs578T
Test: as above
Conditions: incubation time: 72 h
Procedure, shortened: as §1

Compound	drug sensitivity score
CNCc1ccc(-c2[nH]c3cc(F)cc4c3c2CCNC4=O)cc1 [Rucaparib]	0
C[C@]12CC[C@@H]3c4ccc(O)cc4C[C@@H](CCCCCCCCC[S+]([O-])CCCC(F)(F)C(F)(F)F)[C@H]3[C@@H]1CC[C@@H]2O (some centres not stated) [Fulvestrant]	0
CN(C)/N=N/c1[nH]cnc1C(N)=O [Dacarbazine]	0
CC(C)Cn1cnc2c(N)nc3ccccc3c21 [Imiquimod]	0
C#Cc1cccc(Nc2ncnc3cc(OCCOC)c(OCCOC)cc23)c1 [Erlotinib]	0
N[C@@H](CSC(c1ccccc1)(c1ccccc1)c1ccccc1)C(=O)O [S-trityl-L-cysteine]	0
O=P1(NCCCl)OCCCN1CCCl (configuration not stated) [Ifosfamide]	0
Cc1ccc(-n2nc(C(C)(C)C)cc2NC(=O)Nc2ccc(OCCN3CCOCC3)c3ccccc23)cc1 [Doramapimod]	0
Cn1c(Nc2ccc(C(F)(F)F)cc2)nc2cc(Oc3ccnc(-c4ncc(C(F)(F)F)[nH]4)c3)ccc21 [RAF265]	2.49
COc1cc([C@@H]2c3cc4c(cc3[C@@H](O[C@@H]3O[C@@H]5CO[C@@H](C)O[C@H]5[C@H](O)[C@H]3O)[C@H]3COC(=O)[C@H]23)OCO4)cc(OC)c1O [Etoposide]	2.84
CN(N=O)C(=O)N[C@@H](C=O)[C@@H](O)[C@H](O)[C@H](O)CO [Streptozocin]	0
Cc1ccc(C(=O)N(CCCN)[C@@H](c2oc3cc(Cl)ccc3c(=O)c2Cc2ccccc2)C(C)C)cc1	0

Tested on: MCF-10A
Test: as above
Conditions: incubation time: 72 h
Procedure, shortened: as §1

Compound	drug sensitivity score
CNCc1ccc(-c2[nH]c3cc(F)cc4c3c2CCNC4=O)cc1 [Rucaparib]	0
C[C@]12CC[C@@H]3c4ccc(O)cc4C[C@@H](CCCCCCCCC[S+]([O-])CCCC(F)(F)C(F)(F)F)[C@H]3[C@@H]1CC[C@@H]2O (some centres not stated) [Fulvestrant]	0
CN(C)/N=N/c1[nH]cnc1C(N)=O [Dacarbazine]	0
CC(C)Cn1cnc2c(N)nc3ccccc3c21 [Imiquimod]	0
C#Cc1cccc(Nc2ncnc3cc(OCCOC)c(OCCOC)cc23)c1 [Erlotinib]	16.3
N[C@@H](CSC(c1ccccc1)(c1ccccc1)c1ccccc1)C(=O)O [S-trityl-L-cysteine]	0
O=P1(NCCCl)OCCCN1CCCl (configuration not stated) [Ifosfamide]	0
Cc1ccc(-n2nc(C(C)(C)C)cc2NC(=O)Nc2ccc(OCCN3CCOCC3)c3ccccc23)cc1 [Doramapimod]	0
Cn1c(Nc2ccc(C(F)(F)F)cc2)nc2cc(Oc3ccnc(-c4ncc(C(F)(F)F)[nH]4)c3)ccc21 [RAF265]	0
COc1cc([C@@H]2c3cc4c(cc3[C@@H](O[C@@H]3O[C@@H]5CO[C@@H](C)O[C@H]5[C@H](O)[C@H]3O)[C@H]3COC(=O)[C@H]23)OCO4)cc(OC)c1O [Etoposide]	0
CN(N=O)C(=O)N[C@@H](C=O)[C@@H](O)[C@H](O)[C@H](O)CO [Streptozocin]	0
Cc1ccc(C(=O)N(CCCN)[C@@H](c2oc3cc(Cl)ccc3c(=O)c2Cc2ccccc2)C(C)C)cc1	0

Tested on: MDA-MB-436
Test: as above
Conditions: incubation time: 72 h
Procedure, shortened: as §1

Compound	drug sensitivity score
CNCc1ccc(-c2[nH]c3cc(F)cc4c3c2CCNC4=O)cc1 [Rucaparib]	1.14
C[C@]12CC[C@@H]3c4ccc(O)cc4C[C@@H](CCCCCCCCC[S+]([O-])CCCC(F)(F)C(F)(F)F)[C@H]3[C@@H]1CC[C@@H]2O (some centres not stated) [Fulvestrant]	0
CN(C)/N=N/c1[nH]cnc1C(N)=O [Dacarbazine]	0
CC(C)Cn1cnc2c(N)nc3ccccc3c21 [Imiquimod]	0
C#Cc1cccc(Nc2ncnc3cc(OCCOC)c(OCCOC)cc23)c1 [Erlotinib]	0.203
N[C@@H](CSC(c1ccccc1)(c1ccccc1)c1ccccc1)C(=O)O [S-trityl-L-cysteine]	0
O=P1(NCCCl)OCCCN1CCCl (configuration not stated) [Ifosfamide]	0
Cc1ccc(-n2nc(C(C)(C)C)cc2NC(=O)Nc2ccc(OCCN3CCOCC3)c3ccccc23)cc1 [Doramapimod]	0
Cn1c(Nc2ccc(C(F)(F)F)cc2)nc2cc(Oc3ccnc(-c4ncc(C(F)(F)F)[nH]4)c3)ccc21 [RAF265]	2.94
COc1cc([C@@H]2c3cc4c(cc3[C@@H](O[C@@H]3O[C@@H]5CO[C@@H](C)O[C@H]5[C@H](O)[C@H]3O)[C@H]3COC(=O)[C@H]23)OCO4)cc(OC)c1O [Etoposide]	7.41
CN(N=O)C(=O)N[C@@H](C=O)[C@@H](O)[C@H](O)[C@H](O)CO [Streptozocin]	0
Cc1ccc(C(=O)N(CCCN)[C@@H](c2oc3cc(Cl)ccc3c(=O)c2Cc2ccccc2)C(C)C)cc1	0

Tested on: MFM-223
Test: as above
Conditions: incubation time: 72 h
Procedure, shortened: as §1

Compound	drug sensitivity score
CNCc1ccc(-c2[nH]c3cc(F)cc4c3c2CCNC4=O)cc1 [Rucaparib]	0
C[C@]12CC[C@@H]3c4ccc(O)cc4C[C@@H](CCCCCCCCC[S+]([O-])CCCC(F)(F)C(F)(F)F)[C@H]3[C@@H]1CC[C@@H]2O (some centres not stated) [Fulvestrant]	0
CN(C)/N=N/c1[nH]cnc1C(N)=O [Dacarbazine]	0
CC(C)Cn1cnc2c(N)nc3ccccc3c21 [Imiquimod]	0
C#Cc1cccc(Nc2ncnc3cc(OCCOC)c(OCCOC)cc23)c1 [Erlotinib]	0
N[C@@H](CSC(c1ccccc1)(c1ccccc1)c1ccccc1)C(=O)O [S-trityl-L-cysteine]	0
O=P1(NCCCl)OCCCN1CCCl (configuration not stated) [Ifosfamide]	0
Cc1ccc(-n2nc(C(C)(C)C)cc2NC(=O)Nc2ccc(OCCN3CCOCC3)c3ccccc23)cc1 [Doramapimod]	2.15
Cn1c(Nc2ccc(C(F)(F)F)cc2)nc2cc(Oc3ccnc(-c4ncc(C(F)(F)F)[nH]4)c3)ccc21 [RAF265]	2.07
COc1cc([C@@H]2c3cc4c(cc3[C@@H](O[C@@H]3O[C@@H]5CO[C@@H](C)O[C@H]5[C@H](O)[C@H]3O)[C@H]3COC(=O)[C@H]23)OCO4)cc(OC)c1O [Etoposide]	0
CN(N=O)C(=O)N[C@@H](C=O)[C@@H](O)[C@H](O)[C@H](O)CO [Streptozocin]	0
Cc1ccc(C(=O)N(CCCN)[C@@H](c2oc3cc(Cl)ccc3c(=O)c2Cc2ccccc2)C(C)C)cc1	0

Tested on: SK-BR-3
Test: as above
Conditions: incubation time: 72 h
Procedure, shortened: as §1

Compound	drug sensitivity score
CNCc1ccc(-c2[nH]c3cc(F)cc4c3c2CCNC4=O)cc1 [Rucaparib]	0
C[C@]12CC[C@@H]3c4ccc(O)cc4C[C@@H](CCCCCCCCC[S+]([O-])CCCC(F)(F)C(F)(F)F)[C@H]3[C@@H]1CC[C@@H]2O (some centres not stated) [Fulvestrant]	0
CN(C)/N=N/c1[nH]cnc1C(N)=O [Dacarbazine]	0
CC(C)Cn1cnc2c(N)nc3ccccc3c21 [Imiquimod]	0
C#Cc1cccc(Nc2ncnc3cc(OCCOC)c(OCCOC)cc23)c1 [Erlotinib]	2.74
N[C@@H](CSC(c1ccccc1)(c1ccccc1)c1ccccc1)C(=O)O [S-trityl-L-cysteine]	0
O=P1(NCCCl)OCCCN1CCCl (configuration not stated) [Ifosfamide]	0
Cc1ccc(-n2nc(C(C)(C)C)cc2NC(=O)Nc2ccc(OCCN3CCOCC3)c3ccccc23)cc1 [Doramapimod]	0
Cn1c(Nc2ccc(C(F)(F)F)cc2)nc2cc(Oc3ccnc(-c4ncc(C(F)(F)F)[nH]4)c3)ccc21 [RAF265]	0
COc1cc([C@@H]2c3cc4c(cc3[C@@H](O[C@@H]3O[C@@H]5CO[C@@H](C)O[C@H]5[C@H](O)[C@H]3O)[C@H]3COC(=O)[C@H]23)OCO4)cc(OC)c1O [Etoposide]	9.09
CN(N=O)C(=O)N[C@@H](C=O)[C@@H](O)[C@H](O)[C@H](O)CO [Streptozocin]	0
Cc1ccc(C(=O)N(CCCN)[C@@H](c2oc3cc(Cl)ccc3c(=O)c2Cc2ccccc2)C(C)C)cc1	0
